Test results as given in patent US20210268030A1, “FIBROADIPOGENIC PROGENITOR-DERIVED EXOSOMES FOR REGENERATION OF DYSTROPHIC MUSCLES” (EXOFIX S.R.L., priority 2018, published 2021).

How the values were obtained:
[1] = tested on: miRs within FAP-derived exosomes; assay: Taqman-based miR expression microarray of FAP-derived exosomes; type: in vivo; details: mdx mice treated for 15 days with TSA vs control vehicle
Experimental: Total exosomal RNA was extracted with Total Exosome RNA Protein Isolation Kit (#4478545, Thermo Fisher Scientific). TaqMan MicroRNA Assays were performed according to the manufacturer's recommended protocols (Applied Biosystems) The threshold cycle (Ct) were defined as the fractional cycle number at which the fluorescence passes the fixed threshold. U6 snRNA served as an endogenous control for normalization.
In particular, total exosomal-RNA was retro-transcribed using TaqMan MicroRNA Reverse Transcription Kit (#4366596, ThermoFisher Scientific)
For greater sensitivity, the cDNA was pre-amplified using Taqman PREAMP master mix (#4391128, ThermoFisher Scientific) and Megaplex PreAMP Primers and then amplified using high multiplexed Megaplex Primer Pool (#4444766, ThermoFisher Scientific) and the TaqMan 2× Universal Master Mix II (#4440040, ThermoFisher Scientific) on TaqMan rodent MicroRNA A/B cards Array version 3.0 (#4444909, ThermoFisher Scientific).
We then determined the identity of the miRs within FAP-derived exosomes, by performing a Taqman-based miR expression microarray from exosomes isolated from the supernatant of FAPs derived by mdx mice treated for 15 days with TSA or control vehicle (CTR).

Notch3 = Notch3 transcripts in MuSCs isolated from treated mdx mice; type: in vivo; details: MuSCs isolated from mdx mice treated with TSA
Experimental: (§1) Animals were used at the specified age and treated for the indicated periods with daily intra peritoneal injections of Trichostatin A, TSA (0.6 mg/kg/day; #T8552, Sigma), dissolved in phospate-saline solution or in phospate-saline alone as vehicle control (CTR). Muscle injury was performed by intramuscular injection in Tibliais Anterior (TA) of Cardiotoxin—CTX− (10 μM, 10 mg/mL) (#L8102, Lotaxan Valence, France, http://www.latoxan.com), 3 days before mice sacrifice.
(§2) For RNA-sequencing sample preparation, MuSCs and FAPs were freshly isolated by FACS from 6 C57BI6 mdx male mice 8-weeks old treated or not with TSA for 15 days. RNA was collected using Trizol) reagent (#T9424, Sigma). About 100 ng/μL of total RNA was sent in duplicate to IGA (Istituto di Genomica Applicata, Udine) for RNA sequencing using Illumina TruSeq Stranded Total RNA kit Ribo-Zero GOLD on Illumina Hiseq2500 platform.
(§3) To investigate this hypothesis, we evaluated the effect of FAP-derived exosomes from HDACi-treated or control-treated mdx mice on MuSCs within single fibres isolated from WT mice. Freshly isolated single muscle fibres from tibialis anterior, extensor digitorum longus, gastrocnemius and soleus of C57BL6J mice were incubated with FAP-derived exosomes or whole conditioned media, and their effect on MuSCs was evaluated by monitoring the expression of Pax7, MyoD and DNA synthesis (EdU incorporation). […]

Notch1 = Notch1 transcripts in MuSCs isolated from treated mdx mice; type: in vivo; details: MuSCs isolated from mdx mice treated with TSA
Experimental: as §1, §2, §3

mdx muscles = assay: Regeneration, fibrosis and inflammation in mdx tibialis anterior after exosome injection or systemic TSA; type: in vivo, mdx mice; details: 21 days; exosomes intramuscular every 7 days or TSA daily intra-peritoneal
Experimental: as §1
FAPs-derived exosomes at a final concentration of 10 μg in 20 μL of PBS1x (0.5 ug/μl) (#14190-1444, Gibco by life technologies) and its vehicle of control (20 μl PBS1x) were injected 3 times in left TA of young C57BL6/mdx mice: every 7 days for 21 days.
For Masson Trichrome staining to analyze fibrotic tissue, muscle cryo-sections were fixed for 20′ at 56° C. in Bouin's Solution (#HT10132, L Sigma) and then stained in Working Weigert's Iron Hematoxilin solution for 5 min (#HT1079, Sigma), washed in running tap water for 5 min and stained in Biebrich Scarlet-Acid Fucsin for 5 min (#HT151, Sigma). Sections were rinsed in de-ionized water and re-fixed in freshly made Phosphomolybdic/Phosphotungstic/dH2O (1:1:2) acid solution for 8 min (#HT153, #HT152, Sigma), and then they are stained in Aniline Blue solution for 5 min (#HT154, Sigma) and in acid acetic 1% for 2 min (#27221, Sigma). The slides were dehydratated in ethanol (#02860, Sigma) and xilene (#X1040, Sigma) and mounted with EUKITT (#03989, Sigma), then visualized using a Nikon Eclipse 90i: collagen fibers are stained in blue, the nuclei stained in black and the muscle tissue is stained in red. miRNA in situ hybridization was performed as described by Pena (2009) in formaldehyde and carbodiimide (EDC)-fixed TA cryo-sections (0.16M 90 min at RT,_#25952-53-8, Merck KGaA). After washes with 0.2% glycine (#G8898, Sigma) and TBS, cryo-sections were acetylated using 0.1 M triethanolamine and 0.25% acetic anhydride for 25 min at RT (respectively #90275, #A6404, Sigma). This steps are followed by a pre-hybridization using 2× of SSC, 25% formamide (#F9037, Sigma); 0.2% Triton (#X100, Sigma) 30 min at RT and by the over night hybridization at 4° C. with the has-miR206 probe (10 pmol, #18100-01, exiqon) dissolved in a solution of 50% formamide, 250 μg/ml tRNA (#R1753, Sigma), 200 μg/ml SSDNA (#D7656, Sigma), 10% dextran sulphate (#D8906, Sigma) and 2× SSC. The hybridization was followed by specific washes with SSC to eliminate non specific binding of probe (5× SSC 5 min at RT, 1× SSC 15 min at 45° C., 2% BSA in 0.2× SSC 15 min at 4° C., 2× SSC 5 min at RT, TNbuffer 10 min at RT and TNT buffer 15′ at RT) and by the incubation of cryo-section using anti-digoxigenin-ap fab fragments ( 1/100, #11093274910, Roche) dissolved in TNbuffer for 2 hours at RT. To reveal the miRNA probe specific binding cryo-sections, covered from light, were incubating over night at 4° C. with 0.375 mg/ml of NBT and 0.188 mg/ml BCIP dissolved in a solution of TMNbuffer (respectively #11383213001 and #11383221001, Roche).
For immunofluorescence analysis, cryo-sections and cells were fixed in 4% PFA for 10 min and permeabilized with 100% cold acetone (#32201, Sigma) for 6 min at −20° C. or 100% cold Methanol (#32213, Sigma) for 6 min at −20° or with 0.25% Triton for 15 min at RT. Muscle sections were blocked for 1 h with a solution containing 4% BSA (#A7030, Sigma) in PBS. […]

CC(/C=C/C(=O)NO)=C\[C@@H](C)C(=O)c1ccc(N(C)C)cc1 [TSA, Trichostatin A]
miRs in exosomes from FAPs [1]: several miRs up-regulated | Notch3 transcripts (Notch3): reduced | Notch1 transcripts (Notch1): reduced | embryonic-MyHC-positive myofibers (eMyHC) (mdx muscles): increase | fibers calibre, cross sectional area (CSA) (mdx muscles): increase | fibrosis (mdx muscles): reduce | inflammation (MPO) (mdx muscles): significant reduction | muscle fiber area fraction (MFAF) (mdx muscles): increase
